From patent US20240150377A1, “MODULATORS OF CYSTIC FIBROSIS TRANSMEMBRANE CONDUCTANCE REGULATOR” (VERTEX PHARMACEUTICALS INCORPORATED, priority 2020, published 2024)
pEC50: −log10 of the molar value. Read-outs that look alike come from different tables or passages of the source. One block for each molecule: values may come before it.

Target: T1, CFTR (Homo sapiens, UniProt P13569, DEL508-508)
T1 construct: endogenous in cells; host or cells: primary human bronchial epithelial cells from CF subjects (F508del/MF-HBE), differentiated at air-liquid interface
T1 sequence (P13569 with tags, fused parts or gaps DEL508-508): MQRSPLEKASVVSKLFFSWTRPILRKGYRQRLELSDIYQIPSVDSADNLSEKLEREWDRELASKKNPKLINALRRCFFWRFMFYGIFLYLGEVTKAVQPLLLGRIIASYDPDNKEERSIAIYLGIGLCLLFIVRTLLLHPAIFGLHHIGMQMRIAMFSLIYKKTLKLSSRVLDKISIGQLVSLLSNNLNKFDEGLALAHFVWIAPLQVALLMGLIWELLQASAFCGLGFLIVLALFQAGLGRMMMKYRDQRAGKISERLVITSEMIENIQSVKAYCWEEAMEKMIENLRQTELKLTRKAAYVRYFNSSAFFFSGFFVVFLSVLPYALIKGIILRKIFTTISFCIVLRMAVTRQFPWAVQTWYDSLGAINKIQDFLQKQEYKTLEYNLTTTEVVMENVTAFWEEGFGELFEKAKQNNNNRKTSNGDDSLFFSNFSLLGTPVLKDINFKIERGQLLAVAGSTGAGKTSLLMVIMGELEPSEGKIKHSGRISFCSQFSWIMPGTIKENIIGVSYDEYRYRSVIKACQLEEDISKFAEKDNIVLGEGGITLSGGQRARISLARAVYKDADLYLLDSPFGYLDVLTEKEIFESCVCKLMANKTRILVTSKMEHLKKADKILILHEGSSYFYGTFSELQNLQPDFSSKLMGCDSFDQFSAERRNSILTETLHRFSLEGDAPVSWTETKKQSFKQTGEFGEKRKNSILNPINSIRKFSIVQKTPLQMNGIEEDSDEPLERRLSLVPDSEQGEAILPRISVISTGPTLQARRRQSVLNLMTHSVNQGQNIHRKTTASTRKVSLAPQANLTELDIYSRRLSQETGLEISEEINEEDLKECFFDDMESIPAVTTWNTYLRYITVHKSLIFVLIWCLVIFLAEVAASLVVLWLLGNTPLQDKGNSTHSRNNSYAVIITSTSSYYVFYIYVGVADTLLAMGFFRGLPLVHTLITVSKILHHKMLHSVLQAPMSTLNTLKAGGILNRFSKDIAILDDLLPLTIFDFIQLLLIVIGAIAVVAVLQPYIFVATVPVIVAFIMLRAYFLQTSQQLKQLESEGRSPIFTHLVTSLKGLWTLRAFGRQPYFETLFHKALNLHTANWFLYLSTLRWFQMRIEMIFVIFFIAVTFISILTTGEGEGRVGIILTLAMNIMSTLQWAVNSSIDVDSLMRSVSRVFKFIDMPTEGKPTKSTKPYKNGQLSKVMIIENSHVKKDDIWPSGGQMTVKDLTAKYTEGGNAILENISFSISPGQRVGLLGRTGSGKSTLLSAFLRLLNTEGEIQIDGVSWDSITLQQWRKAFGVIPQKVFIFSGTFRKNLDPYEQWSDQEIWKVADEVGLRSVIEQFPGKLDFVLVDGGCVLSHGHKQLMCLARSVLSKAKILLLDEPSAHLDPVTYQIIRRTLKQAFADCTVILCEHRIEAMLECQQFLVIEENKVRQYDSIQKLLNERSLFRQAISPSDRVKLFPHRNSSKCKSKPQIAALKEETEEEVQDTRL
Assay: HBE assay: Ussing chamber assay of CFTR-mediated short-circuit currents
Type: cell-based
Details: for pEC50: read-out: HBE EC50
In short: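 CFTR-mediated Isc (μA/cm²) equals the peak response to apical 20 μM forskolin minus the residual after a 20 μM each BPO/GlyH-101/CFTR inhibitor 172 cocktail, recorded in Ussing chambers at Vhold 0 mV, 37 °C, pH 7.4, with 30 μM apical amiloride. Cells were F508del/MF HBE cultures preincubated 18-24 h with corrector (concentration range or 10 μM) plus 1 μM ivacaftor in 20% human serum.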

[1] = Table 13, read-out: HBE Max Activity (%)
[2] = Table 11, read-out: HBE Max Activity (%)
[3] = Table 12, read-out: HBE Max Activity (%)
[4] = HBE assay, read-out: HBE Max activity (%)
[5] = Table 12, at 10 μM, read-out: HBE Activity at 10 μM (%)
[6] = Table 10, read-out: HBE Max activity (%)
[7] = Table 13, at 10 μM, read-out: HBE Activity at 10 μM (%)

- activation at 10 µM (Table 10, at 10 μM, read-out: HBE activity at 10 (μM) (%)): < 300%
SMILES: Cc1cccc(C)c1-c1cc2nc(n1)NS(=O)(=O)c1cccc(c1)C1Oc3cnc4ccccc4c3CN1[C@H](CC(C)(C)C)CO2 (some centres unmarked) [Compound 752]

- pEC50 (Table 13): > 6.00
- Emax [1]: > 60%
SMILES: Cc1cccc(C)c1-c1cc2nc(n1)NS(=O)(=O)c1cccc(c1)C(=O)N(Cc1ncc(N3CCC(C)(C)C3)cc1C(F)(F)F)[C@H](CC(C)(C)C)CO2 [Compound 1118]

- pEC50 (Table 11): 5.52 to 6.00
- Emax [2]: > 60%
SMILES: Cc1cccc(C)c1-c1cc2nc(n1)NS(=O)(=O)c1cccc(c1)C(=O)N(Cc1ccc(N3CCC(C)(C)C3)cn1)[C@H](CC(C)(C)C)CO2 [Compound 609]

- pEC50 (Table 12): > 6.00
- Emax [3]: > 60%
SMILES: CCC(C)C(CO)N(C)c1cncc(CN2C(=O)c3cccc(c3)S(=O)(=O)Nc3nc(cc(-c4c(C)cccc4C)n3)OC[C@H]2CC(C)(C)C)n1 (some centres unmarked) [Compound 260]

- pEC50 (HBE assay): > 6.00
SMILES: CO[C@H]1C[C@@H](Oc2cnc(CN3C(=O)c4cccc(c4)S(=O)(=O)Nc4nc(cc(-c5c(C)cccc5C)n4)OC[C@H]3CC(C)C)nc2)C1 (stereo in doubt) [Compound 1462]

- pEC50 (Table 12): > 6.00
- Emax [3]: > 60%
SMILES: Cc1cccc(C)c1-c1cc2nc(n1)NS(=O)(=O)c1cccc(c1)C(=O)N(Cc1ncc(N(C)C3CC4(CC4)C3)cn1)[C@H](CC(C)(C)C)CO2 [Compound 575]

- pEC50 (Table 12): > 6.00
- Emax [3]: > 60%
SMILES: Cc1cccc(C)c1-c1cc2nc(n1)NS(=O)(=O)c1cccc(c1)C(=O)N(Cc1ccn(C3CCC3)n1)[C@H](CC(C)(C)C)CO2 [Compound 461]

- pEC50 (HBE assay): > 6.00
- Emax [4]: > 60%
SMILES: Cc1cccc(C)c1-c1cc2nc(n1)NS(=O)(=O)c1cccc(c1)C(=O)N(Cc1ncc(OC(F)F)cn1)[C@H](CC(C)(C)C)CO2 [Compound 1430]

- pEC50 (Table 11): > 6.00
- Emax [2]: > 60%
SMILES: Cc1cccc(C)c1-c1cc2nc(n1)NS(=O)(=O)c1cccc(c1)C(=O)N(Cc1nccc(N3CCC[C@H]3C)n1)[C@H](CC(C)(C)C)CO2 [Compound 618]

- pEC50 (Table 11): > 6.00
- Emax [2]: > 60%
SMILES: Cc1cccc(C)c1-c1cc2nc(n1)NS(=O)(=O)c1cccc(c1)C(=O)N(Cc1cccc(NC(C)C)n1)[C@H](CC(C)(C)C)CO2 [Compound 736]

- activation at 10 µM [5]: > 600%
SMILES: Cc1cccnc1CNC(=O)CN1C(=O)c2cccc(c2)S(=O)(=O)Nc2nc(cc(-c3c(C)cccc3C)n2)OC[C@H]1CC(C)(C)C [Compound 215]

- activation at 10 µM (Table 11, at 10 μM, read-out: HBE Activity at 10 μM (%)): > 60%
SMILES: Cc1cccc(C)c1-c1cc2nc(n1)NS(=O)(=O)c1cccc(c1)C(=O)N(CC1CCOC(C)(C)C1)[C@H](CC(C)(C)C)CO2 (single isomer, unassigned) [Compound 28]

- pEC50 (Table 10): > 6.00
- Emax [6]: > 60%
SMILES: Cc1cccc(C)c1-c1cc2nc(n1)NS(=O)(=O)c1cccc(c1)C(=O)N(CC1CCN(c3ncccn3)CC1)[C@H](CC(C)(C)C)CO2 [Compound 109, (11R)-6-(2,6-Dimethylphenyl)-11-(2,2-dimethylpropyl)-2,2-dioxo-12-[(1-pyrimidin-2-yl-4-piperidyl)methyl]-9-oxa-2λ^6-thia-3,5,12,19-tetrazatricyclo[12.3.1.14,8]nonadeca-1(18),4(19),5,7,14,16-hexaen-13-one]

- activation at 10 µM (HBE assay, 10 μM, read-out: HBE Activity at 10 μM (%)): > 60%
SMILES: Cc1cccc(C)c1-c1cc2nc(n1)NS(=O)(=O)c1cccc(c1)C(=O)N(Cc1ncc(OC3CCCOC3)cn1)[C@H](CC(C)C)CO2 (some centres unmarked) [Compound 1433]

- activation at 10 µM [7]: > 600%
SMILES: Cc1cccc(C)c1-c1cc2nc(n1)NS(=O)(=O)c1cccc(c1)C(=O)N(Cc1ccc(Br)cn1)[C@H](CC(C)(C)C)CO2 [Compound 993]

- pEC50 (Table 11): > 6.00
SMILES: Cc1cccc(C)c1-c1cc2nc(n1)NS(=O)(=O)c1cccc(c1)C(=O)N(CC1CCC(C)(C)CO1)[C@H](CC(C)(C)C)CO2 (single isomer, unassigned) [Compound 23]

- pEC50 (Table 11): > 6.00
- Emax [2]: > 60%
SMILES: Cc1cccc(C)c1-c1cc2nc(n1)NS(=O)(=O)c1cccc(c1)C(=O)N(C[C@@H]1CN(CC(C)(C)C)CCO1)[C@H](CC(C)(C)C)CO2 [Compound 142, (11R)-6-(2,6-Dimethylphenyl)-11-(2,2-dimethylpropyl)-12-{[(2S)-4-(2,2-dimethylpropyl)morpholin-2-yl]methyl}-9-oxa-2λ^6-thia-3,5,12,19-tetraazatricyclo[12.3.1.14,8]nonadeca-1(17),4,6,8(19),14(18),15-hexaene-2,2,13-trione]

- activation at 10 µM [7]: > 600%
SMILES: Cc1cccc(C)c1-c1cc2nc(n1)NS(=O)(=O)c1cccc(c1)C(=O)N(Cc1nc(C(C)(C)C)no1)[C@H](CC(C)(C)C)CO2 [Compound 1131]

- pEC50 (Table 11): > 6.00
- Emax [2]: > 60%
SMILES: Cc1cccc(C)c1-c1cc2nc(n1)NS(=O)(=O)c1cccc(c1)C(=O)N(Cc1nccc(NCC(C)(C)C)n1)[C@H](CC(C)(C)C)CO2 [Compound 646]

- pEC50 (HBE assay): > 6.00
- Emax [4]: > 60%
SMILES: Cc1cccc(C)c1-c1cc2nc(n1)NS(=O)(=O)c1cccc(c1)C(=O)N(Cc1cccc(N3CCC[C@@H]3CC(C)C)n1)[C@H](CC(C)(C)C)CO2 [Compound 1428]

- pEC50 (Table 12): > 6.00
- Emax [3]: > 60%
SMILES: Cc1cccc(C)c1-c1cc2nc(n1)NS(=O)(=O)c1cccc(c1)C(=O)N(Cc1cccc(N3CCCC34CCC4)n1)[C@H](CC(C)(C)C)CO2 [Compound 562]

- pEC50 (Table 12): > 6.00
- Emax [3]: > 60%
SMILES: COC[C@@H]1CCCN1c1cnc(CN2C(=O)c3cccc(c3)S(=O)(=O)Nc3nc(cc(-c4c(C)cccc4C)n3)OC[C@H]2CC(C)(C)C)nc1 [Compound 571]

- pEC50 (Table 12): > 6.00
- Emax [3]: > 60%
SMILES: Cc1cccc(C)c1-c1cc2nc(n1)NS(=O)(=O)c1cccc(c1)C(=O)N(Cc1ncc(N3CCC(C(C)(C)C)C3)cn1)[C@H](CC(C)(C)C)CO2 (some centres unmarked) [Compound 875]

- pEC50 (Table 12): > 6.00
- Emax [3]: > 60%
SMILES: Cc1cccc(C)c1-c1cc2nc(n1)NS(=O)(=O)c1cccc(c1)C(=O)N(Cc1cncc(C3CCCCC3)c1)[C@H](CC(C)(C)C)CO2 [Compound 286]

- pEC50 (Table 13): > 6.00
- Emax [1]: > 60%
SMILES: Cc1ccc(F)c(CN2C(=O)c3cccc(c3)S(=O)(=O)Nc3nc(cc(-c4c(C)cccc4C)n3)OC[C@H]2CC(C)(C)C)n1 [Compound 1113]

- pEC50 (Table 12): > 6.00
- Emax [3]: > 60%
SMILES: Cc1cccc(C)c1-c1cc2nc(n1)NS(=O)(=O)c1cccc(c1)C(=O)N(Cc1cccc(N3CCC[C@H]3CO)n1)[C@H](CC(C)(C)C)CO2 [Compound 279]

- pEC50 (Table 13): > 6.00
- Emax [1]: > 60%
SMILES: Cc1cccc(C)c1-c1cc2nc(n1)NS(=O)(=O)c1cccc(c1)C(=O)N(Cc1ncc(N3CCCC3(C)C)cn1)[C@H](CC(C)(C)C)CO2 [Compound 537]

- activation at 10 µM [7]: > 600%
SMILES: Cc1cccc(C)c1-c1cc2nc(n1)NS(=O)(=O)c1cccc(c1)C(=O)N(Cc1cccc(N3CCCC3C(N)=O)n1)[C@H](CC(C)(C)C)CO2 (some centres unmarked) [Compound 539]

- pEC50 (Table 10): > 6.00
SMILES: Cc1cccc(C)c1-c1cc2nc(n1)NS(=O)(=O)c1cccc(c1)C(=O)N(CC1CCC(N3CCOCC3)CC1)[C@H](CC(C)(C)C)CO2 (single isomer, unassigned) [Compound 153]

- pEC50 (HBE assay): > 6.00
- Emax [4]: > 60%
SMILES: COCCN(c1cccc(CN2C(=O)c3cccc(c3)S(=O)(=O)Nc3nc(cc(-c4c(C)cccc4C)n3)OC[C@H]2CC(C)(C)C)n1)C1CC2(CC2)C1 [Compound 1393]

- activation at 10 µM [7]: > 600%
SMILES: Cc1cccc(C)c1-c1cc2nc(n1)NS(=O)(=O)c1cccc(c1)C(=O)N(CC(=O)NC1CCC13CCC3)[C@H](CC(C)(C)C)CO2 (some centres unmarked) [Compound 173]

- activation at 10 µM [7]: 30 to 60%
SMILES: Cc1cccc(C)c1-c1cc2nc(n1)NS(=O)(=O)c1cccc(c1)C(=O)N(Cc1ccc(C(=O)O)cn1)[C@H](CC(C)(C)C)CO2 [Compound 247]

- pEC50 (HBE assay): > 6.00
- Emax [4]: > 60%
SMILES: Cc1cccc(C)c1-c1cc2nc(n1)NS(=O)(=O)c1cccc(c1)C(=O)N(Cc1ncc(OC3CCOCC3)cc1F)[C@H](CC(C)(C)C)CO2 [Compound 1368]

- pEC50 (Table 12): > 6.00
- Emax [3]: > 60%
SMILES: Cc1cccc(C)c1-c1cc2nc(n1)NS(=O)(=O)c1cccc(c1)C(=O)N(Cc1cncc(N(C)CC(C)(C)C)n1)[C@H](C(C)C)CO2 [Compound 694]

- Emax [6]: > 60%
SMILES: Cc1cccc(C)c1-c1cc2nc(n1)NS(=O)(=O)c1cccc(c1)C(=O)N(Cc1cccc(-n3ccc(C(C)(C)C)n3)n1)[C@H](CC(C)(C)C)CO2 [Compound 470]

- activation at 10 µM [7]: > 600%
SMILES: Cc1cccc(C)c1-c1cc2nc(n1)NS(=O)(=O)c1cccc(c1)C(=O)N(CC(=O)NC1CCC(C)(C)CC1)[C@H](CC(C)(C)C)CO2 [Compound 179]

- activation at 10 µM [5]: 30 to 60%
SMILES: Cc1cccc(C)c1-c1cc2nc(n1)NS(=O)(=O)c1cccc(c1)C(=O)N(Cc1cncc(N3CC(C(=O)O)C(C(C)C)C3)n1)[C@H](CC(C)(C)C)CO2 (some centres unmarked) [Compound 263]

- activation at 10 µM [7]: > 600%
SMILES: Cc1cccc(C)c1-c1cc2nc(n1)NS(=O)(=O)c1cccc(c1)C(=O)N(CC(=O)NC1CCCCC1(C)C)[C@H](CC(C)(C)C)CO2 (some centres unmarked) [Compound 178]

- Emax [6]: > 60%
SMILES: Cc1cccc(C)c1-c1cc2nc(n1)NS(=O)(=O)c1cccc(c1)C(=O)N(Cc1ccc(C(C)(C)C)nc1)[C@H](CC(C)(C)C)CO2 [Compound 1074]

- activation at 10 µM [7]: > 600%
SMILES: Cc1cccc(C)c1-c1cc2nc(n1)NS(=O)(=O)c1cccc(c1)C(=O)N(CC(=O)N1CCCC1c1ccccc1)[C@H](CC(C)(C)C)CO2 (some centres unmarked) [Compound 188]
